Measurements as given in ChEMBL document CHEMBL5726444, “Pyrazole derivative” (2017).

Molecular target: cAMP and cAMP-inhibited cGMP 3',5'-cyclic phosphodiesterase 10A (Homo sapiens, UniProt Q9Y233)
Assay: Phosphodiersterase Evaluation Assay: IMAP TR-FRET Phosphodiersterase Evaluation Assay Kit (Molecular Device) was used for the measurement. Ten μL of a diluted test compound having each concentration and 5 μL of the enzyme PDE10 (BPA Bioscience) that had been diluted to 2 ng/mL with 1×IMAP Reaction Buffer (prepared with 5×included with the kit, 10 mM Tris-HCl, pH=7.2, 10 mM MgCl2, 0.05% NaN3, and 0.1% BSA) containing 0.1% BSA were added to a 384-well plate (Corning). The obtained mixture was then pre-incubated at room temperature for 5 minutes. Thereafter, 5 μL of cAMP substrate solution which was included with the kit and diluted to 400 nM with 1×IMAP Reaction Buffer containing 0.1% BSA, was added to the reaction solution, and the obtained mixture was reacted at room temperature for 60 minutes. Thereafter, 60 μL of an IMAP TR-FRET Binding solution included with the kit was further added to the reaction solution, and the obtained mixture was then left for 3 hours or more. Subsequently, using ARVO SX (PerkinElmer), the fluorescent intensity of Terbium (Emission=490 nm) and TR-FRET (Emission=520 nm) in the reaction solution were measured at an excitation wavelength of 340 nm, so as to calculate the amount of the generated 5′-AMP. […]

cAMP and cAMP-inhibited cGMP 3',5'-cyclic phosphodiesterase 10A, sequence (Q9Y233 whole entry): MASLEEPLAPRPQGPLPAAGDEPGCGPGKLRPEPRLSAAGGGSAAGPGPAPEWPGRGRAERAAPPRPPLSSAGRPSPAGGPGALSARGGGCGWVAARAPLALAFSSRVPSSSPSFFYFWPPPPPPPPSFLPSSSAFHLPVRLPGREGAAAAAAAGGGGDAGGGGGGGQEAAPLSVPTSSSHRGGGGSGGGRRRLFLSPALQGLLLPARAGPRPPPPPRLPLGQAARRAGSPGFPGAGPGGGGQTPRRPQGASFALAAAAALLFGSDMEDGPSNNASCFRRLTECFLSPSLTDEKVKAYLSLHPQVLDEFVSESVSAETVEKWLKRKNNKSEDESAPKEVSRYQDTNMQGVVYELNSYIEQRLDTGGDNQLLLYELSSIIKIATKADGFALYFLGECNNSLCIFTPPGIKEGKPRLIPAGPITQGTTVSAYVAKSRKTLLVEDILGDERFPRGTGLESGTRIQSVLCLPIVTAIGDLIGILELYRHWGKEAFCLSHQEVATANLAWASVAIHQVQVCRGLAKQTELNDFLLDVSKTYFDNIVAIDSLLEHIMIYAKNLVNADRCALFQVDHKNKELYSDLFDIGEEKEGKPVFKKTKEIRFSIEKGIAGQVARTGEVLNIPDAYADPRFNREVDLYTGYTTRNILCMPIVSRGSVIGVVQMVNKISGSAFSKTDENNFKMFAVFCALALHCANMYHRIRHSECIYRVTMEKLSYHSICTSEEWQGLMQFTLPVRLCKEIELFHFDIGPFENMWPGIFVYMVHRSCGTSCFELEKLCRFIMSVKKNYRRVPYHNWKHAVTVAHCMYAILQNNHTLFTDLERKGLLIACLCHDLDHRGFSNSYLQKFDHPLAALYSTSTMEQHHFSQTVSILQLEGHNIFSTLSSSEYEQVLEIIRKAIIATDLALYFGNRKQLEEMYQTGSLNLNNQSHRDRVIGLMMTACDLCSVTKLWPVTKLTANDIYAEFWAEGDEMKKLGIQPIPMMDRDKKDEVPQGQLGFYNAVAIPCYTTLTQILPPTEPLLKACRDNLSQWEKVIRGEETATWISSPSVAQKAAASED

SMILES: Cc1cccc(-c2cnn(C)c2C(=O)Nc2cc3nc(N4CCC[C@@H]4C(F)(F)F)nn3cc2F)n1
- IC50: < 5 nM
